# Assay results published in publication PMC3517986 (Biochemical Journal, 2012).
# Entries after “also recorded” stand apart in the source; their conditions may differ.
# How the values were obtained:
# [1] = molecular target: T1, WDR5 (Homo sapiens, UniProt P61964); assay type: binding; conditions: fluorescence polarization, 40 nM FITC-WIN peptide, 5 μM WDR5, triplicate
# [2] = molecular target: T1, WDR5; experiment: ITC; assay type: binding
# [3] = tested on: EHMT1; experiment: HMT selectivity panel: EHMT1; assay type: biochemical, human; conditions: concentrations up to 100 μM
# [4] = tested on: SETD8; experiment: HMT selectivity panel: SETD8; assay type: biochemical, human; conditions: concentrations up to 100 μM
# [5] = molecular target: MLL–WDR5–RbBP5–ASH2L complex (Homo sapiens, UniProt P61964); experiment: Methyltransferase activity of tetrameric MLL complex; assay type: biochemical; conditions: tetrameric MLL complex at 10, 50 and 125 nM; not calculated owing to incomplete fitting
# [6] = tested on: SETD7; experiment: HMT selectivity panel: SETD7; assay type: biochemical, human; conditions: concentrations up to 100 μM
# [7] = molecular target: MLL–WDR5–RbBP5 core complex (trimeric complex) (Homo sapiens, UniProt P61964); experiment: Methyltransferase activity of trimeric MLL complex; assay type: biochemical
# [8] = tested on: G9a; experiment: HMT selectivity panel: G9a; assay type: biochemical, human; conditions: concentrations up to 100 μM
# [9] = tested on: SUV39H2; experiment: HMT selectivity panel: SUV39H2; assay type: biochemical, human; conditions: concentrations up to 100 μM
# [10] = tested on: PRMT3; experiment: HMT selectivity panel: PRMT3; assay type: biochemical, human; conditions: concentrations up to 100 μM
# [11] = tested on: PRMT5_MEP50 complex; experiment: HMT selectivity panel: PRMT5; assay type: biochemical, human; conditions: concentrations up to 100 μM
SMILES,Kdis (Kdisplacement) [1] [µM],Kd [2] [µM],inhibitory effect [3],inhibitory effect [4],IC50 relative to trimeric complex [5],inhibitory effect [6],"IC50 ([7]; IC50, 125 nM (0.125 μM) trimeric MLL complex) [µM]","IC50 ([7]; IC50, 500 nM trimeric MLL complex) [µM]","IC50 ([7]; IC50, 1000 nM trimeric MLL complex) [µM]",inhibitory effect [8],inhibitory effect [9],inhibitory effect [10],inhibitory effect [11]
"CN1CCN(c2ccc([N+](=O)[O-])cc2NC(=O)c2ccccc2)CC1 [WDR5-0101, N-(2-(4-methylpiperazin-1-yl)-5 nitrophenyl)benzamide]",12 ± 1,5.5 ± 0.6,,,,,,,,,,,
"COC(=O)c1ccc(N2CCN(C)CC2)c(NC(=O)c2cccc(OC)c2)c1 [WDR5-0103, methyl-3-(3-methoxybenzamido)-4-(4-methylpiperazin-1-yl)benzoate]",3.0 ± 0.1,0.45 ± 0.02,no inhibitory effect,no inhibitory effect,significantly higher,no inhibitory effect; also recorded: did not affect methyltransferase activity,39 ± 10,83 ± 10,280 ± 12,no inhibitory effect,no inhibitory effect,no inhibitory effect,no inhibitory effect
